Earlier results, collected in patent US20060134244A1, “Breast health supplement and detoxification preparations” (priority 2004, published 2006).

Tests used:
[1] = test system: precancerous lesions of the cervix and laryngeal papillomas; conditions: pathologies with a human papillomavirus (HPV); reported
[2] = oral administration; reported

SMILES	clinical effectiveness in treating precancerous lesions of the cervix and laryngeal papillomas [1]	unabsorbed EDTA that remains within the digestive tract [2]
c1ccc2c(Cc3c[nH]c4ccccc34)c[nH]c2c1 [DIM, 3,3′-diindolylmethane]	clinically effective	
OCc1c[nH]c2ccccc12 [Example I3C, indole-3-carbinol]	clinically effective	
O=C(O)CN(CCN(CC(=O)O)CC(=O)O)CC(=O)O [EDTA, ethylenediamine-N,N,N′,N′-tetraacetic acid]		95%
